Holding throughout (experiment): NCI anticancer screen, dose series, 48 h
Test [1] has as its system EKVX.
Test [2] concerns CCRF-CEM.
Test [3] relates to SW-620.
The subject of test [4] is TK-10.
In test [5] the test system is Malme-3M.
For test [6], the system named is T47D.
Test [7] deals with SF-539.
Test [8] has as its system OVCAR-8.
Test [9] has as its system NCI-H522.
In test [10] the test system is RPMI-8226.
Test [11] concerns HT-29.
Test [12] concerns HCT-15.
Test [13] relates to HOP-62.
Test [14] concerns SF-295.
In test [15] the test system is Hs-578T.
For test [16], the system named is CAKI-1.
In test [17] the test system is 786-0.
Test [18] concerns M14.
Test [19] has as its system SF-268.

Molecules are shown by their SMILES. Structures can show the parent of a compound that is named as a salt.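 Method: 48-hour compound exposure of cells in 96-well plates, five concentrations, linear interpolation of endpoints. GI50 = concentration required for 50% inhibition of growth.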 Calls of active or inactive are those of the source. Rule as the data show it: active = GI50 up to about 1.1 µM and inactive = higher. Bounds are passed on as bounds.

Turning to `COC(=O)/C=C\C(C#N)(C#N)/N=C/c1ccccc1`, the GI50 was 12.8 µM (inactive) in test [1]; 0.337 µM (active) in test [2]; 1.46 µM (inactive) in test [3]; 2.25 µM (inactive) in test [4]; 2.21 µM (inactive) in [5]; 1.72 µM (inactive) in [6]. The GI50 was 3.78 µM (inactive) in test [7]; 1.91 µM (inactive) in test [8]; 0.471 µM (active) in test [9]; 0.573 µM (active) in test [10]; 4.49 µM (inactive) in [11]; 2.92 µM in test [12]. Moreover, the GI50 is 18.5 µM (inactive) in [13]; 18.7 µM (inactive) in test [14]; 12.2 µM (inactive) in [15]; 2.86 µM (inactive) in [16]; 1.63 µM (inactive) in test [17]; 2.25 µM (inactive) in test [18]. Also, in [19], the GI50 was 4.95 µM (inactive).
In the case of `Cc1ccc(/C=N/Nc2nncc3ccccc23)s1`, the GI50 in test [1] was > 100 µM (inactive); in [2] it was > 100 µM (inactive); in test [3], > 100 µM (inactive); in test [4], > 52 µM (inactive); in [5] it was > 75.9 µM (inactive); in test [6] it was > 100 µM (inactive). Moreover, the GI50 in [7] is 52.6 µM (inactive); in test [8], 65.2 µM (inactive); in test [9], 31.5 µM (inactive); in test [10], > 100 µM (inactive); in [11], > 100 µM (inactive); in test [12], > 100 µM. In addition, the GI50 in test [13] is > 46.7 µM (inactive); in test [14], 35.9 µM (inactive); in test [15] it was 35.6 µM (inactive); in [16], > 100 µM (inactive); in test [17] it was > 52.2 µM (inactive); in test [18], > 67.5 µM (inactive). Moreover, the GI50 in test [19] is > 58.1 µM (inactive).
For the molecule `O=C1C(Cl)=C(N2CCN(c3ccccn3)CC2)C(=O)c2c(O)ccc(O)c21`, the GI50 in [1] was 4.27 µM (inactive); in test [2], 0.37 µM (active); in test [3], 0.665 µM (active); in [4] it was 2.29 µM (inactive); in test [5], 1.65 µM (inactive); in [6], 1.3 µM (inactive). Also, the GI50 in [7] is 1.79 µM (inactive); in [8] it was 2.12 µM (inactive); in test [9] it was 1.74 µM (inactive); in test [10], 0.394 µM (active); in test [11] it was 1.28 µM (inactive); in test [12], 1.12 µM. Also, the GI50 in [13] was 4.67 µM (inactive); in [14] it was 3.78 µM (inactive); in test [15] it was 1.84 µM (inactive); in [16], 2.08 µM (inactive); in test [17], 1.25 µM (inactive); in test [18] it was 1.46 µM (inactive). Moreover, the GI50 in [19] is 2.59 µM (inactive).
As for `NC(Cc1ccccc1)(C(=O)O)C(=O)O`, the GI50 in [1], in test [2], in test [3], in test [4], in test [5] and in [6] was > 100 µM (inactive) in each case. The GI50 is > 100 µM (inactive) in test [7]; > 100 µM (inactive) in test [8]; > 100 µM (inactive) in test [9]; > 100 µM (inactive) in test [10]; > 100 µM (inactive) in test [11]; > 100 µM in [12]. Besides, the GI50 in [13] is > 100 µM (inactive); in test [14] it was > 100 µM (inactive); in test [15], > 100 µM (inactive); in test [16] it was 14.8 µM (inactive); in test [17] it was > 100 µM (inactive); in test [18], > 100 µM (inactive). In addition, the GI50 in [19] is > 100 µM (inactive).
On to `Nc1nc(O)nc2snnc12`, for which the GI50 in test [1] is > 100 µM (inactive); in test [2], 14.9 µM (inactive); in [3] it was 5.4 µM (inactive); in test [4], > 22.4 µM (inactive); in test [5], 8.65 µM (inactive); in test [6] it was 4.57 µM (inactive). Besides, the GI50 in test [7] was 15.9 µM (inactive); in test [8] it was 5.71 µM (inactive); in test [9], > 100 µM (inactive); in test [10], 5.7 µM (inactive); in test [11], > 100 µM (inactive); in test [12], > 89.7 µM. For the same molecule, the GI50 in test [13] was 8.07 µM (inactive); in test [14] it was 33.2 µM (inactive); in [15] it was > 54.8 µM (inactive); in test [16], 1.77 µM (inactive); in [17], 6.38 µM (inactive); in test [18] it was 7.35 µM (inactive). For the same molecule, in test [19], the GI50 is 5.04 µM (inactive).
`COC(=O)c1c2c(cc3c1CC1(Cc4cc5c(cc4C1)CCC5)C3)CCC2`: the GI50 in test [1], in test [2], in test [3], in test [4], in test [5] and in test [6] was > 100 µM (inactive) throughout. In addition, the GI50 in [7] is > 100 µM (inactive); in test [8], > 100 µM (inactive); in test [9], > 100 µM (inactive); in [10], > 100 µM (inactive); in test [11] it was > 100 µM (inactive); in [12] it was > 100 µM. Further, the GI50 in test [13], in test [14], in test [15], in test [16], in test [17] and in test [18] was > 100 µM (inactive) throughout. Also, in test [19], the GI50 is > 100 µM (inactive).
With `COc1cc2c3c([nH]c2c(OC)c1OC)CCN(Cc1ccccc1)C3`, the GI50 in test [1] was > 100 µM (inactive); in test [2], 17.7 µM (inactive); in test [3], 1.95 µM (inactive); in test [4], 21.7 µM (inactive); in test [5] it was 16.6 µM (inactive); in test [6], 24.8 µM (inactive). The GI50 is 17.7 µM (inactive) in [7]; > 100 µM (inactive) in test [8]; > 100 µM (inactive) in test [9]; 18.5 µM (inactive) in [10]; 11.4 µM (inactive) in test [11]; 31.9 µM in [12]. In addition, the GI50 in test [13] was 93.5 µM (inactive); in test [14] it was 30.8 µM (inactive); in test [15] it was 32.4 µM (inactive); in test [16], 0.787 µM (active); in [17], 22.3 µM (inactive); in test [18], 14.1 µM (inactive). For the same molecule, the GI50 in [19] was 62.5 µM (inactive).
As to `CC(=O)OC(C)(C)/N=N/c1ccc(Br)cc1`, the GI50 in test [1] was 9.38 µM (inactive); in test [2], 10.2 µM (inactive); in test [3] it was 48.2 µM (inactive); in [4], 23.7 µM (inactive); in [5] it was > 43.1 µM (inactive); in test [6], 1.09 µM (active). In addition, the GI50 in test [7] was 0.841 µM (active); in test [8] it was 17.5 µM (inactive); in test [9], 9.4 µM (inactive); in test [10], 0.942 µM (active); in test [11], 0.975 µM (active); in test [12], 0.977 µM. Moreover, the GI50 in test [13] is 34.3 µM (inactive); in [14] it was 0.153 µM (active); in test [15], > 53.2 µM (inactive); in test [16], 16.7 µM (inactive); in test [17] it was 22.9 µM (inactive); in [18], 0.277 µM (active). For the same molecule, the GI50 in test [19] is 17.4 µM (inactive).
On to `CN[C@@H](C)[C@@H](O)c1ccccc1` [PSEUDOEPHEDRINE HYDROCHLORIDE], for which the GI50 was > 100 µM (inactive) in test [1]; > 10 µM (inactive) in test [2]; > 100 µM (inactive) in [3]; > 100 µM (inactive) in [4]; > 100 µM (inactive) in [5]; > 100 µM (inactive) in test [6]. The GI50 in test [7] is > 100 µM (inactive); in [8] it was > 100 µM (inactive); in [9], > 10 µM (inactive); in test [10], > 100 µM (inactive); in [11], > 100 µM (inactive); in test [12] it was > 100 µM. For the same molecule, the GI50 in test [13], in test [14], in test [15], in test [16], in test [17] and in test [18] was > 100 µM (inactive) each time. In addition, the GI50 in test [19] was > 100 µM (inactive).
`O=c1[nH]nc(Cc2c[nH]c3ccccc23)o1`: the GI50 in test [1], in [2], in test [3], in [4], in [5] and in test [6] was > 100 µM (inactive) in each case. Besides, the GI50 in [7] was > 100 µM (inactive); in test [8], > 100 µM (inactive); in test [9], > 100 µM (inactive); in test [10], > 100 µM (inactive); in [11], > 100 µM (inactive); in test [12] it was > 100 µM. For the same molecule, the GI50 in test [13], in test [14], in [15], in test [16], in test [17] and in test [18] was > 100 µM (inactive) in each case. For the same molecule, the GI50 in test [19] was > 100 µM (inactive).
For the molecule `Nc1cccc(C2CCCc3c2[nH]c2ccccc32)c1` (centres undefined), the GI50 was 18.5 µM (inactive) in test [1]; 15.3 µM (inactive) in test [2]; 17.4 µM (inactive) in test [3]; 32.4 µM (inactive) in test [4]; 18.1 µM (inactive) in [5]; 12.1 µM (inactive) in [6]. Besides, the GI50 in [7] is 20.3 µM (inactive); in [8], 17.7 µM (inactive); in test [9], 15.8 µM (inactive); in test [10], 19.1 µM (inactive); in [11], 14.6 µM (inactive); in test [12], 8.28 µM. Moreover, the GI50 in test [13] was 30.5 µM (inactive); in test [14], 20.8 µM (inactive); in test [15], 16 µM (inactive); in test [16], 23.9 µM (inactive); in test [17], 18.2 µM (inactive); in test [18] it was 22.3 µM (inactive). The GI50 in [19] was 17.2 µM (inactive).

The values are drawn from ChEMBL document CHEMBL1201862, “PubChem BioAssay data set” (2004).
